Laboratory results published in ChEMBL document CHEMBL4219058, “Discovery of new thienopyrimidine derivatives as potent and orally efficacious phosphoinositide 3-kinase inhibitors” (Bioorg Med Chem, 2018).
pIC50: −log10 of the molar value.

Tests used:
U-87 MG = assay: Antiproliferative activity against human U87MG cells after 4 days by Celltiter-Glo luminescence cell viability assay; type: functional, cell-based, U-87MG ATCC; conditions: 96 h
[1] = Effective permeability of the compound measured after 5 hrs by PAMPA; type: ADME; conditions: read-out: Peff
[2] = molecular target: Phosphatidylinositol 4,5-bisphosphate 3-kinase catalytic subunit gamma isoform (Homo sapiens, UniProt P48736); assay: Inhibition of PI3Kgamma (unknown origin) using PIP2 as substrate measured after 1 hr by Kinase-Glo luminescence assay
Sequence of Phosphatidylinositol 4,5-bisphosphate 3-kinase catalytic subunit gamma isoform (P48736 whole entry, canonical isoform): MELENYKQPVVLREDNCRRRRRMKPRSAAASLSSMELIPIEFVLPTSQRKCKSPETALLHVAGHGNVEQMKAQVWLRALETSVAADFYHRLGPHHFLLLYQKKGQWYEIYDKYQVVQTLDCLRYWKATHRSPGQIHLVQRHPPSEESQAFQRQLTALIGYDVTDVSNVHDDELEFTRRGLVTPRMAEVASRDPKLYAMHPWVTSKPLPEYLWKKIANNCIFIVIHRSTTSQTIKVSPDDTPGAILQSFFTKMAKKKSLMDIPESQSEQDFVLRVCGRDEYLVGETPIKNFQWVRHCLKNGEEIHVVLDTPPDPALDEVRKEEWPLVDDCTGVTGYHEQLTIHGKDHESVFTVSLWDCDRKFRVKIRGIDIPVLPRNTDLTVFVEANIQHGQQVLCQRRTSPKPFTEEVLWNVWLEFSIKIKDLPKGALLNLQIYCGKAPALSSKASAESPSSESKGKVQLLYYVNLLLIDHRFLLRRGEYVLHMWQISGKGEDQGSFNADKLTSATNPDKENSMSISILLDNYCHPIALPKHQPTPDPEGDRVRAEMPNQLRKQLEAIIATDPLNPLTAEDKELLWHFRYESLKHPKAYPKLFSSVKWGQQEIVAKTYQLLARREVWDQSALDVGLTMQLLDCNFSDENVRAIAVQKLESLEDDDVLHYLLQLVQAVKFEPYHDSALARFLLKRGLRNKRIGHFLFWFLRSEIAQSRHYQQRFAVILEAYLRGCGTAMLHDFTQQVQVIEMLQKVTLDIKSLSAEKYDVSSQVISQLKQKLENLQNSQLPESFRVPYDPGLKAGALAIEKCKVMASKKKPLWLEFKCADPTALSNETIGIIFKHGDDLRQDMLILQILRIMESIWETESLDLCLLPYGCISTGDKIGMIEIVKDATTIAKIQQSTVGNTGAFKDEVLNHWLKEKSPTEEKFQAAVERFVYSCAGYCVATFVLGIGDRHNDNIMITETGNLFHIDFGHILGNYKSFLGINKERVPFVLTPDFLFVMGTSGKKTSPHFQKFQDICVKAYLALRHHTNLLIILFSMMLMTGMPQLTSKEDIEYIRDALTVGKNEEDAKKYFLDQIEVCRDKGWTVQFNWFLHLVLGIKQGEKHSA

Structure (SMILES) | pIC50 (U-87 MG) | Papp at 5 h [1] [×10⁻⁶ cm/s] | pIC50 [2]
COc1ccc(-c2cc3c(C)nc(N)nc3n([C@H]3CC[C@H](OCCO)CC3)c2=O)cn1 [PF-04691502] | 6.47 |  | 
COc1ncc(-c2cc3c(C)nc(NC(C)=O)nc3s2)cc1NS(=O)(=O)c1ccc(F)cc1F |  | 9.6 | 7.96
COc1ncc(-c2cc3c(C)nc(N)nc3s2)cc1NS(=O)(=O)c1ccc(F)cc1F |  | 4.8 | 
